# Data published in US8937039B2, “Peptide-based peroxidase inhibitors and methods of using same” (The Medical College of Wisconsin, Inc., priority 2009, dated 2015).
# Residues, ends and D or L forms follow the SMILES beside them.
# Legend:
# [1] = Solubility in aqueous buffers; format: physicochemical
# SCD mice [2] = assay: Vessel wall thickness of facialis arteries of treated SCD mice; format: in vivo, mouse; settings: KYC three weeks; P=0.10
# Description: Vessel Wall Thickness. After completing the vasodilatation studies, the pressurized vessels were maximally dilated by addition of papaverine (10^−4 mol/L, 4 min), and outside and inside diameters recorded. An index of wall thickness was calculated using the following formula; ([…]/2)/outside diameter, as previously described.
# SCD mice [3] = assay: Vasodilatation of pressurized facialis arteries from SCD mice treated in vivo; set-up: species or system mouse; settings: KYC, three weeks
# Description: Murine Model of Sickle Cell Disease. Mice treated with KYC in vivo. SCD mice were treated with KYC (intraperitoneal injection: IP 0.3 mg/kg/d) or with PBS (IP 100 μL) for 3 weeks. Anesthesia was induced with Ketamine (100 mg/kg)+Xylazine (10 mg/kg) cocktail (ip) and then sacrificed by exsanguination. Facialis arteries were atraumatically dissected and maintained in cooled MOPS solution (in mM: NaCl 145, KCL 4.7, CaCl2 2, NaH2PO4 1.2, MgSO4, 1.2, pyruvate 2, EDTA 0.02, MOPS 3.0, and glucose 5.0, at pH 7.4). Vessels were then submerged in a MOPS bath, mounted on MOPS-containing glass capillary tubes, internally pressurized (60 mmHg), and warmed to 37° C. Internal vascular diameters were measured with a calibrated video-microscope (Boeckeler). After the vessel was allowed to acclimate to 37° C. (approximately 30 min), the diameter was measured and recorded (Dmax). […] A control dose-response curve using acetylcholine (ACh, 10^−7-10^−4 M) was performed and vessel diameter recorded. […] Vasodilation to papaverine ([…]) was determined after all treatments to ensure smooth muscle viability. Vasodilation was calculated as a percent of maximal vessel diameter change.
# Vasodilatation. […] Physiological responses to increasing concentrations of acetylcholine (ACh) were determined by videomicroscopy as previously described.
# C57BL/6J mice = assay: Pulmonary retention of Q-dot labeled EMPs (acute lung injury); format: in vivo, mouse; settings: pretreatment and treatment with KYC
# Description: KYC Inhibits Acute Lung Injury. Inflammation and sepsis induce the release of endothelial cell microparticles (EMPs). Increased production of EMPs is hypothesized to play a causal role in the mechanisms mediating acute lung injury (ALI). To test this hypothesis, the inventors incubated human umbilical vein endothelial cells with PAI-1, which is well-recognized for inducing endothelial cells to generate EMPs. The EMPs were collected by ultracentrifugation, resuspended in physiological saline solution and then labeled with Q-dots. The Q-dot labeled EMPs were counted and then injected into C57BL/6J mice to achieve a final concentration of 100,000 EMPs/mL of blood. Mice were pretreated with phosphate buffered saline (FIG. 6) or KYC and then were injected with Q-dot labeled EMPs alone or Q-dot labeled EMPs plus KYC (FIG. 6).
# SCD mice [4] = assay: Immunofluorescence of aortas of treated SCD mice (chlorotyrosine, MPO); format: in vivo, mouse; settings: KYC IP 0.3 mg/kg/d, three weeks, vs non-treated SCD mice
# Description: Immunofluorescence Studies. In a separate study, SCD mice were treated with KYC (IP, 0.3 mg/kg/d). After three weeks treatment, mice were deeply anesthetized and euthanized by exsanguination. Thoracic and abdominal aortas were surgically removed and rinsed free of blood elements using ice cold PBS. Aortas were fixed, imbedded in paraffin, and sectioned.
# lung cancer mice = assay: BHT-treated lung cancer mice (BALF activities, tumor number); format: in vivo, mouse
# Description: Inhibiting MPO decreases PMN degranulation in lung cancer mice. PMNs are considered to play a causal role in initiating tumor formation. Effects of KYC on PMN recruitment and tumor formation in lung cancer mice were determined. Briefly, mice were treated with BHT (single dose: 300 mg/kg) and KYC (0.3 mg/kg/d).
# SCD mice [5] = assay: WBC counts in treated SCD mice (cytometry); format: in vivo, mouse; settings: KYC-treated SCD mice
# Description: […] vascular function in SCD mice. To determine whether inhibiting MPO improves vascular function and/or reduces inflammation in vivo, SCD mice were treated with KYC for three weeks. […] Such physiological and structural changes are consistent with immunofluorescent studies showing that chlorotyrosine and MPO levels are reduced in the aortas of KYC-treated SCD mice compared with non-treated SCD mice (FIG. 13). High WBC counts are indicative of on-going inflammation in SCD and predictive of future vaso-occlusive events. Accordingly, WBC levels were quantified in the SCD mice using standard cytometry assays.
# [6] = BHT 300 mg/kg single dose, KYC 0.3 mg/kg/d, after 3 days
structure (smiles),measurement,setting,value
"CC(=O)N[C@@H](CCCCN)C(=O)N[C@@H](Cc1ccc(O)cc1)C(=O)N[C@@H](CS)C(N)=O [KYC, N-acetyl Lysyltyrosylcysteine Amide] (Ac-Lys-Tyr-Cys-NH2)",Solubility in water / aqueous buffers (in words),[1],highly water soluble
same,Vessel wall thickness (in words),SCD mice [2],reduces vessel wall thickness
same,Endothelium- and eNOS-dependent vasodilatation (in words),SCD mice [3],dramatically increases
same,Pulmonary retention of Q-dot labeled EMPs (in words),C57BL/6J mice,dramatically decreases
same,Chlorotyrosine levels in aortas (in words),SCD mice [4],reduced
same,MPO levels in aortas (in words),SCD mice [4],reduced
same,Decrease of the number of tumors vs untreated mice,"lung cancer mice; 6 weeks of KYC treatment, p=0.02",~50%
same,Elastase activity in BALF (in words),lung cancer mice; [6],significantly decreased
same,MPO activity in BALF (in words),lung cancer mice; [6],significantly decreased
same,PMN number in BALF (in words),lung cancer mice; [6],did not reduce
same,Reduction of WBC counts (in words),SCD mice [5],more than half
